Measurements reported in PubChem BioAssay (NCI).
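At the GI50, growth is halved. TGI denotes the concentration required for complete inhibition of growth.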

Columns and labels:
Test in all cases: NCI tumour cell line growth inhibition, 384-well format
[1] = tested on: MDA-MB-435 melanoma
[2] = tested on: M14 melanoma
[3] = tested on: RPMI-8226 leukemia
[4] = tested on: SF-268 CNS
[5] = tested on: BT-549 breast
[6] = tested on: A498 renal
[7] = tested on: NCI-H522 lung
[8] = tested on: MCF7 breast
[9] = tested on: SF-539 CNS
[10] = tested on: NCI-H226 lung
[11] = tested on: SR leukemia
[12] = tested on: T-47D breast
[13] = tested on: COLO 205 colon
[14] = tested on: 786-0 renal
[15] = tested on: U251 glioblastoma
[16] = tested on: SN12C renal
[17] = tested on: HCT-15 colon
[18] = tested on: CCRF-CEM leukemia
[19] = tested on: LOX IMVI melanoma
[20] = tested on: A549 NSCLC
[21] = tested on: MALME-3M melanoma
[22] = tested on: PC-3 prostate
[23] = tested on: SF-295 CNS
[24] = tested on: MOLT-4 leukemia
[25] = tested on: IGROV1 ovarian
[26] = tested on: RXF 393 renal
[27] = tested on: TK-10 renal
[28] = tested on: ACHN renal
[29] = tested on: UACC-62 melanoma
[30] = tested on: OVCAR-5 ovarian
[31] = tested on: SK-MEL-28 melanoma
[32] = tested on: DU-145 prostate
[33] = tested on: UO-31 renal
[34] = tested on: HOP-92 NSCLC
[35] = tested on: NCI/ADR-RES ovarian
[36] = tested on: SW-620 colon
[37] = tested on: HOP-62 NSCLC
[38] = tested on: CAKI-1 renal
[39] = tested on: SK-OV-3 ovarian
[40] = tested on: SK-MEL-5 melanoma
[41] = tested on: NCI-H322M lung
[42] = tested on: MDA-MB-468 breast
[43] = tested on: K-562 leukemia
[44] = tested on: MDA-MB-231 breast
[45] = tested on: UACC-257 melanoma
[46] = tested on: HCT-116 colon
[47] = tested on: SNB-19 CNS
[48] = tested on: KM12 colon
[49] = tested on: NCI-H23 lung
[50] = tested on: OVCAR-4 ovarian
[51] = tested on: HT29 colon
[52] = tested on: SK-MEL-2 melanoma
[53] = tested on: HL-60(TB) leukemia
[54] = tested on: OVCAR-3 ovarian
[55] = tested on: OVCAR-8 ovarian
[56] = tested on: NCI-H460 NSCLC
[57] = tested on: HCC-2998 colon

Compound: CC(C)(/C=C(\C#N)C(=O)N1CCC[C@@H](n2nc(-c3ccc(Oc4ccccc4)cc3F)c3c(N)ncnc32)C1)N1CCN(C2COC2)CC1
- GI50 [1]: 0.0551 µM
- TGI [1]: 0.448 µM
- GI50 [2]: 2.08 µM
- TGI [2]: 5.29 µM
- GI50 [3]: 1.14 µM
- TGI [3]: 2.38 µM
- GI50 [4]: 2.29 µM
- TGI [4]: 7.3 µM
- GI50 [5]: 1.21 µM
- TGI [5]: 2.78 µM
- GI50 [6]: 2.39 µM
- TGI [6]: 5.72 µM
- GI50 [7]: 0.164 µM
- TGI [7]: 1.36 µM
- GI50 [8]: 2.28 µM
- TGI [8]: 10.4 µM
- GI50 [9]: 2.08 µM
- TGI [9]: 5.39 µM
- GI50 [10]: 2.18 µM
- TGI [10]: 5.42 µM
- GI50 [11]: 0.0378 µM
- TGI [11]: 0.208 µM
- GI50 [12]: 2.33 µM
- TGI [12]: 11 µM
- GI50 [13]: 1.63 µM
- TGI [13]: 5.8 µM
- GI50 [14]: 3.07 µM
- TGI [14]: 10.4 µM
- GI50 [15]: 2.6 µM
- TGI [15]: 8.45 µM
- GI50 [16]: 2.82 µM
- TGI [16]: 7.62 µM
- GI50 [17]: 4.52 µM
- TGI [17]: 15.1 µM
- GI50 [18]: 1.49 µM
- TGI [18]: 2.86 µM
- GI50 [19]: 2.3 µM
- TGI [19]: 4.09 µM
- GI50 [20]: 3.55 µM
- TGI [20]: 13.2 µM
- GI50 [21]: 1.28 µM
- TGI [21]: 5.26 µM
- GI50 [22]: 3.73 µM
- TGI [22]: 13.8 µM
- GI50 [23]: 9.51 µM
- TGI [23]: 21.5 µM
- GI50 [24]: 0.157 µM
- TGI [24]: 0.46 µM
- GI50 [25]: 2.94 µM
- TGI [25]: 9.69 µM
- GI50 [26]: 1.19 µM
- TGI [26]: 3.04 µM
- GI50 [27]: 6.64 µM
- TGI [27]: 18.9 µM
- GI50 [28]: 9.03 µM
- TGI [28]: 21.2 µM
- GI50 [29]: 1.12 µM
- TGI [29]: 3.24 µM
- GI50 [30]: 10.5 µM
- TGI [30]: 22.9 µM
- GI50 [31]: 1.86 µM
- TGI [31]: 5.23 µM
- GI50 [32]: 9.84 µM
- TGI [32]: 29.1 µM
- GI50 [33]: 7.98 µM
- TGI [33]: 20.3 µM
- GI50 [34]: 1.38 µM
- TGI [34]: 3.76 µM
- GI50 [35]: 13.8 µM
- TGI [35]: 27.1 µM
- GI50 [36]: 1.87 µM
- TGI [36]: 3.63 µM
- GI50 [37]: 2.47 µM
- TGI [37]: 5.82 µM
- GI50 [38]: 3.41 µM
- TGI [38]: 9.34 µM
- GI50 [39]: 1.23 µM
- TGI [39]: 3 µM
- GI50 [40]: 1.41 µM
- TGI [40]: 2.92 µM
- GI50 [41]: 6.84 µM
- TGI [41]: 23.2 µM
- GI50 [42]: 0.239 µM
- TGI [42]: 1.16 µM
- GI50 [43]: 1.24 µM
- TGI [43]: 2.82 µM
- GI50 [44]: 2.54 µM
- TGI [44]: 7.28 µM
- GI50 [45]: 1.49 µM
- TGI [45]: 3.81 µM
- GI50 [46]: 2.9 µM
- TGI [46]: 10.6 µM
- GI50 [47]: 3.69 µM
- TGI [47]: 12.1 µM
- GI50 [48]: 0.712 µM
- TGI [48]: 2.47 µM
- GI50 [49]: 3.51 µM
- TGI [49]: 9.62 µM
- GI50 [50]: 1.35 µM
- TGI [50]: 7.72 µM
- GI50 [51]: 1.73 µM
- TGI [51]: 3.48 µM
- GI50 [52]: 0.0857 µM
- TGI [52]: 1.08 µM
- GI50 [53]: 1.5 µM
- TGI [53]: 2.89 µM
- GI50 [54]: 0.289 µM
- TGI [54]: 1.6 µM
- GI50 [55]: 5.91 µM
- TGI [55]: 18 µM
- GI50 [56]: 1.87 µM
- TGI [56]: 3.72 µM

Compound: CN(C)CC[C@H](CSc1ccccc1)Nc1ccc(S(=O)(=O)NC(=O)c2ccc(N3CCN(Cc4ccccc4-c4ccc(Cl)cc4)CC3)cc2)cc1[N+](=O)[O-]
- GI50 [1]: 2.33 µM
- TGI [1]: 6.07 µM
- GI50 [2]: 2.79 µM
- TGI [2]: 8.57 µM
- GI50 [3]: 0.239 µM
- TGI [3]: 0.444 µM
- GI50 [4]: 3.17 µM
- TGI [4]: > 100 µM
- GI50 [5]: 2.23 µM
- TGI [5]: 6.13 µM
- GI50 [6]: 1.42 µM
- TGI [6]: 2.98 µM
- GI50 [7]: 4.36 µM
- TGI [7]: 60.7 µM
- GI50 [8]: 1.87 µM
- TGI [8]: 4.93 µM
- GI50 [9]: 5.46 µM
- TGI [9]: 100 µM
- GI50 [10]: 1.66 µM
- TGI [10]: 3.86 µM
- GI50 [11]: 0.223 µM
- TGI [11]: 1.48 µM
- GI50 [12]: 2.41 µM
- TGI [12]: 9.13 µM
- GI50 [13]: 1.68 µM
- TGI [13]: 3.12 µM
- GI50 [14]: 1.94 µM
- TGI [14]: 4.74 µM
- GI50 [15]: 2.56 µM
- TGI [15]: 7.35 µM
- GI50 [16]: 2.26 µM
- TGI [16]: 5.79 µM
- GI50 [17]: 1.68 µM
- TGI [17]: 3.17 µM
- GI50 [18]: 0.145 µM
- TGI [18]: 0.372 µM
- GI50 [19]: 2.36 µM
- TGI [19]: 4.73 µM
- GI50 [20]: 3.14 µM
- TGI [20]: 53.2 µM
- GI50 [21]: 3.15 µM
- TGI [21]: 11.2 µM
- GI50 [22]: 1.78 µM
- TGI [22]: 3.48 µM
- GI50 [23]: 2.46 µM
- TGI [23]: 6.83 µM
- GI50 [57]: 0.232 µM
- TGI [57]: 0.75 µM
- GI50 [24]: 0.119 µM
- TGI [24]: 0.252 µM
- GI50 [25]: 1.48 µM
- TGI [25]: 3.59 µM
- GI50 [26]: 0.258 µM
- TGI [26]: 1.4 µM
- GI50 [27]: 1.98 µM
- TGI [27]: 4.79 µM
- GI50 [28]: 5.2 µM
- TGI [28]: 62.8 µM
- GI50 [29]: 3.02 µM
- TGI [29]: 10.5 µM
- GI50 [30]: 2.01 µM
- TGI [30]: 4.19 µM
- GI50 [31]: 2.77 µM
- TGI [31]: 6.76 µM
- GI50 [32]: 4.2 µM
- TGI [32]: > 100 µM
- GI50 [33]: 1.79 µM
- TGI [33]: 3.58 µM
- GI50 [34]: 0.177 µM
- TGI [34]: 1.05 µM
- GI50 [35]: > 100 µM
- TGI [35]: > 100 µM
- GI50 [36]: 3.52 µM
- TGI [36]: 12.2 µM
- GI50 [37]: 3.18 µM
- TGI [37]: 25.4 µM
- GI50 [38]: 1.83 µM
- TGI [38]: 3.73 µM
- GI50 [39]: 2.31 µM
- TGI [39]: 6.3 µM
- GI50 [40]: 1.3 µM
- TGI [40]: 2.64 µM
- GI50 [41]: 2.34 µM
- TGI [41]: 5.7 µM
- GI50 [42]: 1.33 µM
- TGI [42]: 3.42 µM
- GI50 [43]: 2.17 µM
- TGI [43]: 5.21 µM
- GI50 [44]: 1.04 µM
- TGI [44]: 2.39 µM
- GI50 [45]: 1.49 µM
- TGI [45]: 3.71 µM
- GI50 [46]: 1.95 µM
- TGI [46]: 4.07 µM
- GI50 [47]: 3.11 µM
- TGI [47]: > 100 µM
- GI50 [48]: 2.05 µM
- TGI [48]: 6.17 µM
- GI50 [49]: 2.37 µM
- TGI [49]: 7.46 µM
- GI50 [50]: 3 µM
- TGI [50]: 9.08 µM
- GI50 [51]: 2.9 µM
- TGI [51]: 13.3 µM
- GI50 [52]: 1.64 µM
- TGI [52]: 3.64 µM
- GI50 [53]: 0.0477 µM
- TGI [53]: 0.218 µM
- GI50 [54]: 1.63 µM
- TGI [54]: 3.37 µM
- GI50 [55]: 2.29 µM
- TGI [55]: 6.24 µM
- GI50 [56]: 3.65 µM
- TGI [56]: 14.3 µM
